# Results published in patent US6245917A, “Crystalline sodium phenytoin monohydrate” (Warner-Lambert Company, priority 1999, dated 2001).
# Assays:
# [1] = Intrinsic dissolution in 90% ethanol/10% water; assay type: physicochemical; details: for concentration, average: average of runs
# Procedure: (§1) Dissolutions were carried out in a standard Van-Kel dissolution bath. The medium was either water, 90% water/10% ethanol, or 95% water/5% ethanol. For nonintrinsic dissolution experiments, SPM and SPA powders were sieved and fractions that passed through a 75 μm sieve were used. For intrinsic dissolution experiments, tablets were prepared in a standard Woods apparatus by compression of 400 mg of material at 3000 psig for 1 minute.
# (§2) Each experiment was carried out by placing 900 mL of medium into one of the Van-Kel dissolution vessels and allowing it to equilibrate at 37° C. The test materials were added (powder or tablet) and samples were withdrawn by syringe at the specified times (see Table 4). Each sample was filtered through a 0.2μ nylon syringe filter. Three dissolution experiments were carried out for each lot of suspension.
# (§3) For intrinsic dissolution experiments, the test material is compressed into a tablet and the tablet (still in the die) is lowered into the dissolution medium. In this way, a consistent surface area, the tablet face, is presented to the medium. […] Therefore, tablets of SPM and SPA were prepared, removed from the die, crushed into powders, and examined by XRPD.
# Intrinsic dissolution experiments were then carried out in 90% ethanol/10% water. The tablets dissolved very quickly in this medium, resulting in rapid deformation of the tablet faces. Occasionally pieces of solid broke free of the tablets and sank to the bottom of the dissolution vessel. Within 15-40 minutes the tablets had dissolved completely. Because of this behavior, consistent surface areas were not maintained during the course of the experiments. The result was a high degree of imprecision in the concentrations measured (Table 6).
# (§4) Samples were analyzed by high-performance liquid chromatography (HPLC) on a BAS 480 HPLC system equipped with a UV/VIS detector and a TSP AS 100 autosampler, and controlled with INJECT software. A Phenomenex Hypersil C18 BDS column (5μ particle size, 4.6×150 mm) was used. The mobile phase was prepared by mixing water, methanol, and acetic acid in a 60:40:0.5 volume ratio. Analyses were carried out at a flow rate of 1 mL/minute with the UV/VIS detector set at 254 nm. The injection volume was 5 μL.
# (§5) A standard solution consisting of 74.8 μg/mL of sodium phenytoin in mobile phase was injected three times before and three times after each series of analyses. Each unknown sample was injected three times without dilution. The peak areas at 254 nm were recorded and averaged for each time point. The amount of sodium phenytoin in solution at each time point was calculated from the line equation of the calibration curve: […]
# [2] = assay type: physicochemical
# Procedure: (§6) Both SPM and SPA were analyzed by x-ray powder diffraction (XRPD), infrared (IR) spectroscopy, solid-state nuclear magnetic resonance (SSNMR) spectroscopy, differential scanning calorimetry (DSC) and thermogravimetric analysis (TGA). The XRPD patterns of SPM and SPA are quite different and distinguishable. While the IR and SSNMR spectra of SPM and SPA are different, the differences are subtle. SPM and SPA behave quite differently on both DSC and TGA thermal analyses. SPA undergoes endothermic transitions at 364° C. and 409° C. that are accompanied by a weight loss of 72%.
# [3] = DSC and TGA thermal analyses; assay type: physicochemical
# Procedure: Differential scanning calorimetry (DSC) experiments were performed on a Dupont DSC 2000 and thermogravimetric analyses (TGA) were performed on a Dupont TGA 2000. Nitrogen was used as the purge gas and heating rates were 10° C./minute. Standards were run prior to sample analyses; Sn for DSC and calcium oxalate for TGA.
# as §6
# [4] = Nonintrinsic dissolution in water; assay type: physicochemical
# Procedure: as §1, §2
# The rates of dissolution of SPM and SPA were compared. […] These studies were conducted by slurrying sieved (<75 μm) sodium phenytoin powder in pure water and measuring the concentrations in solution at various times by HPLC. Unfortunately, solid crystallized from the solutions withdrawn for analysis as they cooled, rendering the data invalid for determination of dissolution rate. Even so, all of the samples withdrawn contained about 5 mg/mL of sodium phenytoin, including those withdrawn 5 minutes after the slurries were prepared. […] A decrease in the concentration of dissolved sodium phenytoin with time is consistent with the reported reaction of sodium phenytoin with acids, even carbonic acid formed by dissolution of atmospheric carbon dioxide in water, to give relatively water-insoluble phenytoin.
# as §4, §5
# [5] = Drying of SPM under low pressure, XRPD of resulting solid; assay type: physicochemical; details: about 1 torr, ambient temperature, 24 hours
# Procedure: Any residual dichloromethane should evaporate readily from the solid under ambient conditions. To determine if solvent evaporation could be ensured by drying under low-pressure conditions, a portion of the SPM sample was kept under about 1 torr pressure at ambient temperature for 24 hours.
# [6] = Weight change under controlled humidity conditions, first study (SPM made by the toluene slurry); assay type: physicochemical
# Excerpt: Study of weight change under controlled humidity conditions, samples were placed in open vials, which were placed in closed controlled-humidity jars. Relative humidities were controlled using saturated aqueous salt solutions: 58% RH, NaBr; 75% RH, (NH4)2 SO4; 76%, sodium acetate; 84% RH, KBr. Water uptake/loss characteristics of SPM and SPA were compared. Samples were kept at ambient temperature under various relative humidities (RHs) and were periodically weighed. […] The fact that SPM loses significant mass under even high humidity conditions is inconsistent with the loss of only water.
# [7] = Solid form interconversion under tableting pressure (XRPD); assay type: physicochemical; details: XRPD of crushed tablets
# Procedure: as §1, §3
# [8] = all humidities utilized, ambient temperature
compound,measurement,setting,value
"O=C1NC(=O)C(c2ccccc2)(c2ccccc2)N1 [SPM, sodium phenytoin monohydrate]","concentration, average","[1]; 1 min, monohydrate",3300 ng/mL
same,"concentration, Run 1","[1]; 1 min, monohydrate",2420 ng/mL
same,"concentration, Run 2","[1]; 1 min, monohydrate",2210 ng/mL
same,"concentration, Run 3","[1]; 1 min, monohydrate",5260 ng/mL
same,time to complete dissolution of tablets,[1]; 90% ethanol/10% water,15 to 40 min
same,dissolution rate relative to SPA,"[1]; 90% ethanol/10% water, high degree of imprecision",dissolves more rapidly than does SPA
same,"concentration, average","[1]; 5 min, monohydrate",39460 ng/mL
same,"concentration, Run 1","[1]; 5 min, monohydrate",44780 ng/mL
same,"concentration, Run 2","[1]; 5 min, monohydrate",25240 ng/mL
same,"concentration, Run 3","[1]; 5 min, monohydrate",48380 ng/mL
same,"concentration, average","[1]; 10 min, monohydrate",92380 ng/mL
same,"concentration, Run 1","[1]; 10 min, monohydrate",99180 ng/mL
same,"concentration, Run 2","[1]; 10 min, monohydrate",70050 ng/mL
same,"concentration, Run 3","[1]; 10 min, monohydrate",107910 ng/mL
same,"concentration, Run 2",[1]; 15 min,120280 ng/mL
same,"concentration, Run 3",[1]; 15 min,153220 ng/mL
same,"concentration, average",[1]; 15 min,136750 ng/mL
same,"concentration, average","[1]; 20 min, monohydrate",166110 ng/mL
same,"concentration, Run 1","[1]; 20 min, monohydrate",166110 ng/mL
same,stability and physical properties compared with sodium phenytoin anhydrate,[2],greatly improved stability and physical properties
same,endothermic transition temperature,"[3]; DSC, nitrogen, 10° C./minute, monohydrate",about 65 °C
same,weight loss accompanying the low-temperature endothermic transition,"[3]; TGA, transition at about 65° C.",5%
same,amount of sodium phenytoin at extended reaction times versus earlier samples,[4]; 24 and 72 hours,appeared to be less than the amount found in the earlier samples
same,dissolution rate in water,[4]; nonintrinsic dissolution experiments,high enough that differences could not be determined
same,sodium phenytoin in samples withdrawn,"[4]; pure water, including 5 minutes after slurries were prepared, data invalid for dissolution rate",about 5 mg/mL
same,dissolution in water,"[4]; sieved powder (<75 μm), pure water",dissolve rapidly and extensively in water
same,form change on drying under low pressure,[5],these conditions caused dehydration
same,Percent change based on average of final two weights,"[6]; 58% RH, monohydrate",-10%
same,Percent change based on average of final two weights,"[6]; 75% RH, monohydrate",-10%
same,Percent change based on average of final two weights,"[6]; 84% RH, monohydrate",-9%
same,weight lost on reaching constant weight,[6]; [8],10%
same,solid form interconversion under pressure used to make tablets,[7],no solid form interconversion occurred
"O=C1NC(=O)C(c2ccccc2)(c2ccccc2)N1 [SPA, sodium phenytoin anhydrate, reference compound]","concentration, Run 1",[1]; 1 min,1730 ng/mL
same,"concentration, Run 2",[1]; 1 min,1680 ng/mL
same,"concentration, Run 3",[1]; 1 min,3360 ng/mL
same,"concentration, average",[1]; 1 min,2260 ng/mL
same,"concentration, Run 1",[1]; 5 min,11710 ng/mL
same,"concentration, Run 2",[1]; 5 min,12240 ng/mL
same,"concentration, Run 3",[1]; 5 min,19910 ng/mL
same,"concentration, average",[1]; 5 min,14620 ng/mL
same,"concentration, Run 1",[1]; 10 min,23270 ng/mL
same,"concentration, Run 2",[1]; 10 min,23840 ng/mL
same,"concentration, Run 3",[1]; 10 min,57430 ng/mL
same,"concentration, average",[1]; 10 min,34840 ng/mL
same,"concentration, Run 1",[1]; 20 min,47050 ng/mL
same,"concentration, Run 2",[1]; 20 min,60830 ng/mL
same,"concentration, Run 3",[1]; 20 min,144620 ng/mL
same,"concentration, average",[1]; 20 min,87170 ng/mL
same,"concentration, Run 1",[1]; 40 min,112230 ng/mL
same,"concentration, Run 2",[1]; 40 min,139740 ng/mL
same,"concentration, Run 3",[1]; 40 min,193120 ng/mL
same,"concentration, average",[1]; 40 min,148360 ng/mL
same,weight loss accompanying the endothermic transitions,"[3]; TGA, transitions at 364° C. and 409° C.",72%
same,Percent change based on average of final two weights,[6]; 58% RH,+24%
same,Percent change based on average of final two weights,[6]; 75% RH,+25%
same,Percent change based on average of final two weights,[6]; 84% RH,+25%
same,weight gained on reaching constant weight,[6]; [8],25%
